Laboratory results: US20240215575A1, “METHOD OF PREPARING 1-(2,2-DIMETHYLPROPYL)-CYCLOPROPENE AS SPRAYABLE ETHYLENE ANTAGONIST IN PLANTS AND USES THEREOF” (KYUNG SANG NAM DO, priority 2022, published 2024)
Converted amounts (≈) assume the structure as drawn. Like-named read-outs stand apart in the source and are kept apart here. Values belong to the molecule of their own block, whether it stands above or below them.

Key:
[1] = system: Taechu sweet persimmon fruits; experiment: 1-DCP spray treatment of Taechu sweet persimmon fruits on the tree, flesh hardness during room temperature storage; format: in vivo, sweet persimmon (Taechu variety)
Procedure: In particular, four sweet persimmon trees of the Taechu variety were selected on October 7th at the Sweet Persimmon Research Institute Orchard located in Jinyeong-eup, Gyeongsangnam-do, and the fruits growing on two of these trees (control group) were treated with a solution containing 0.025% wetting agent (Carba, Farmhannong), and the fruits of the other two trees (treatment group) were sprayed with an aqueous emulsion containing 1 mM 1-DCP and 0.025% wetting agent using a manual sprayer. Fruits in each treatment group were harvested on October 24, and measured/observed for changes in flesh hardness after 7 days and 14 days while being stored at room temperature.

[2] = Storage stability of 1-DCP and its cyclodextrin inclusion complex; format: physicochemical
[3] = system: banana fruits; experiment: 1-DCP immersion treatment of immature banana fruit followed by ethylene exposure; format: in vivo
Procedure: In particular, immature banana fruits were harvested from a banana farm in Sancheong-gun, Gyeongsangnam-do and transported to the laboratory, and on the same day, the fruits were separated into two groups: the fruits (16) in Group A (control group) were immersed in a 0.025% wetting agent (Carba, FarmHannong) solution not containing 1-DCP, and the fruits (16) in Group B (treatment group) were immersed in a 1 mM 1-DCP aqueous emulsion for 1 second, respectively, to wet the surface with the solution, and then dried at room temperature. Subsequently the next day, half of the fruits (8 each) from groups A and B were divided into two 40 L containers, sealed, and then injected with ethylene gas, thus exposing the fruits to 10 ppm of ethylene for 24 hours. The treated banana fruits were then stored at room temperature and observed for the degree of ripening after 7 days and after 14 days.

[4] = cited from earlier work

storage stability ([2]; stored in a −40° C. freezer): several months or more
SMILES: CC(C)(C)CC1=CC1 [1-DCP, 1-(2,2-dimethylpropyl)-cyclopropene]
flesh hardness ([1]; spray of 1 mM 1-DCP aqueous emulsion with 0.025% wetting agent, after 7 days of storage at room temperature): 19.5 N
inhibition of ethylene action ([1]; spray treatment, 1 mM or less, Taechu fruits): effectively inhibits ethylene action
storage stability (polymerization) ([2]; refrigerated conditions): polymerization occurred within a few days
storage stability ([2]; room temperature): storage at room temperature for more than one day was impossible
degree of ripening ([3]; 1 mM 1-DCP aqueous emulsion, immersion for 1 second, 10 ppm ethylene for 24 hours, room temperature storage, observed after 7 and 14 days): maintained a more immature state than the fruits of Group A up to 14 days
inhibition of ethylene action ([3]; immersion treatment, 1 mM or less, banana fruits): effectively inhibits ethylene action

SMILES: OC[C@H]1O[C@@H]2O[C@H]3[C@H](O)[C@@H](O)[C@@H](O[C@H]4[C@H](O)[C@@H](O)[C@@H](O[C@H]5[C@H](O)[C@@H](O)[C@@H](O[C@H]6[C@H](O)[C@@H](O)[C@@H](O[C@H]7[C@H](O)[C@@H](O)[C@@H](O[C@H]1[C@H](O)[C@H]2O)O[C@@H]7CO)O[C@@H]6CO)O[C@@H]5CO)O[C@@H]4CO)O[C@@H]3CO [a-cyclodextrin, α-cyclodextrin]
solubility in water [4]: 140 mg/mL (≈ 144 mM)

SMILES: OC[C@H]1O[C@@H]2O[C@H]3[C@H](O)[C@@H](O)[C@@H](O[C@H]4[C@H](O)[C@@H](O)[C@@H](O[C@H]5[C@H](O)[C@@H](O)[C@@H](O[C@H]6[C@H](O)[C@@H](O)[C@@H](O[C@H]7[C@H](O)[C@@H](O)[C@@H](O[C@H]8[C@H](O)[C@@H](O)[C@@H](O[C@H]1[C@H](O)[C@H]2O)O[C@@H]8CO)O[C@@H]7CO)O[C@@H]6CO)O[C@@H]5CO)O[C@@H]4CO)O[C@@H]3CO [β-cyclodextrin]
solubility in water ([4]; compared to the alpha type): extremely low solubility in water
